The test deals with T1, hAhR (Homo sapiens, UniProt P35869).
T1 construct: Stably integrated DRE-luciferase cell lines were generated by transducing the both cell lines with Cignal XRE luciferase reporter; endogenous in cells; host or cells: HEPG2 DRE-Luc cells (only the XRE luciferase reporter was transduced)
T1 sequence (P35869 11-848): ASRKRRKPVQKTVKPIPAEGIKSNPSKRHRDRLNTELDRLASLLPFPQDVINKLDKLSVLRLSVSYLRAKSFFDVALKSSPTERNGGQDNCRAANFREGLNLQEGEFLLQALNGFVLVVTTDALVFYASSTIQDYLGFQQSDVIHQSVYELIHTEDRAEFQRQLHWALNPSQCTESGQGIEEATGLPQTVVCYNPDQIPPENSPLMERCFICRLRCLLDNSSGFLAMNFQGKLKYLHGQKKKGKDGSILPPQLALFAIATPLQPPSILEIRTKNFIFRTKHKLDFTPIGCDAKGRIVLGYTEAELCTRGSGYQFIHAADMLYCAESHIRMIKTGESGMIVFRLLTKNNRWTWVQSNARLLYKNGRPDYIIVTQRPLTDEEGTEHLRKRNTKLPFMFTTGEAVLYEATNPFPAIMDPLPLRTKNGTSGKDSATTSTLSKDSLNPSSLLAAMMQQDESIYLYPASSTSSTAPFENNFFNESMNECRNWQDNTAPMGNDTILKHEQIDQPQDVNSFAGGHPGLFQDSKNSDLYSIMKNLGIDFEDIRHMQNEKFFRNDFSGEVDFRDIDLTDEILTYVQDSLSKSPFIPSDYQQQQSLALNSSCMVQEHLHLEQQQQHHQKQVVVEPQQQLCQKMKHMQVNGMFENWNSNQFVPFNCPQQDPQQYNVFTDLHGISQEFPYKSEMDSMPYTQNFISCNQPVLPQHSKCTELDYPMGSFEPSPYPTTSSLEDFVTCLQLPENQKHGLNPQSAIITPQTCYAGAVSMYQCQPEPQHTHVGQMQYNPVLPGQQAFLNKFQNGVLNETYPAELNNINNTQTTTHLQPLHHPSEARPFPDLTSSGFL
The experiment in a line: DRE-luciferase transcriptional reporter assay in HEPG2 DRE-Luc cells, TCDD-induced (antagonist mode). Conditions: relative IC50, 3 nM TCDD, 24-hour incubation, firefly luciferase readout. The test is classed as cell-based. Summed up:
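Stable DRE(XRE)-luciferase HEPG2 clone seeded in OptiMEM with 0.5% heat-inactivated FBS, then given a semi-log compound dilution plus TCDD at 3 nM final. After 24 h, cells were lysed and firefly luminescence read. Response was normalised between TCDD and vehicle, and relative IC50 was taken as half-reduction between the fitted curve plateaus.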
Background: A reporter such as luciferase makes a cellular process visible.

Turning to `Cc1cc(-c2ncc3nc(C(F)(F)F)ccc3n2)ccc1N1C(=O)c2[nH]ncc2OCC1C` (stereo not shown) [compound 046, 6-methyl-7-(2-methyl-4-(6-(trifluoromethyl)pyrido[3,2-d]pyrimidin-2-yl)phenyl)-6,7-dihydro-1H-pyrazolo[3,4-f][1,4]oxazepin-8 (5H)-one], the IC50 is less than 200 nM.
Regarding `Cc1cc(-c2ncc3nc(C(F)(F)F)ccc3n2)ccc1N1CCOc2cn(C)nc2C1=O` [compound 047, 2-methyl-7-(2-methyl-4-(6-(trifluoromethyl)pyrido[3,2-d]pyrimidin-2-yl)phenyl)-6,7-dihydro-2H-pyrazolo[3,4-f][1,4]oxazepin-8 (5H)-one], the IC50 was less than 200 nM.
Under `Cc1cc(-c2ccc3nc(C(F)(F)F)ccc3n2)ccc1N1CCOc2cn(C)nc2C1=O` [compound 048, 2-methyl-7-(2-methyl-4-(6-(trifluoromethyl)-1,5-naphthyridin-2-yl)phenyl)-6,7-dihydro-2H-pyrazolo[3,4-f][1,4]oxazepin-8 (5H)-one] stands less than 200 nM; under `Cc1cc(-c2ncc3nc(C(F)(F)F)ccc3n2)ccc1N1CCOc2cnn(C)c2C1` [compound 049, 1-methyl-7-(2-methyl-4-(6-(trifluoromethyl)pyrido[3,2-d]pyrimidin-2-yl)phenyl)-5,6,7,8-tetrahydro-1H-pyrazolo[3,4-f][1,4]oxazepine], less than 200 nM.
The figure for `Cn1ncc2c1C(=O)N(c1ccc(-c3ncc4nc(C(F)(F)F)ccc4n3)cc1)CCO2` [compound 050, 1-methyl-7-(4-(6-(trifluoromethyl)pyrido[3,2-d]pyrimidin-2-yl)phenyl)-6,7-dihydro-1H-pyrazolo[3,4-f][1,4]oxazepin-8 (5H)-one] is less than 200 nM.
Under `Cc1cc(-c2ncc3nc(F)ccc3n2)ccc1N1CCOc2cnn(C)c2C1=O` [compound 051, 7-(4-(6-fluoropyrido[3,2-d]pyrimidin-2-yl)-2-methylphenyl)-1-methyl-6,7-dihydro-1H-pyrazolo[3,4-f][1,4]oxazepin-8 (5H)-one] stands 200 to 500 nM; under `Cc1cc(-c2ccc3nc(F)ccc3n2)ccc1N1CCOc2cnn(C)c2C1=O` [compound 052, 7-(4-(6-fluoro-1,5-naphthyridin-2-yl)-2-methylphenyl)-1-methyl-6,7-dihydro-1H-pyrazolo[3,4-f][1,4]oxazepin-8 (5H)-one], 500 to 1000 nM.
As for `Cc1cc(-c2ncc3cc(F)ccc3n2)ccc1N1CCOc2cnn(C)c2C1=O` [compound 053, 7-(4-(6-fluoroquinazolin-2-yl)-2-methylphenyl)-1-methyl-6,7-dihydro-1H-pyrazolo[3,4-f][1,4]oxazepin-8 (5H)-one], the IC50 was 200 to 500 nM.
The figure for `Cc1cc(-c2ncc3cc(C(F)(F)F)ccc3n2)ccc1N1CCOc2cccnc2C1=O` [compound 054, 4-(2-methyl-4-(6-(trifluoromethyl)quinazolin-2-yl)phenyl)-3,4-dihydropyrido[2,3-f][1,4]oxazepin-5 (2H)-one] is 200 to 500 nM; for `Cc1cc(-c2ncc3cc(C(F)(F)F)ccc3n2)ccc1N1CCOc2cncnc2C1=O` [compound 055, 8-(2-methyl-4-(6-(trifluoromethyl)quinazolin-2-yl)phenyl)-7,8-dihydropyrimido[4,5-f][1,4]oxazepin-9 (6H)-one] it is 200 to 500 nM; for `CCOC(=O)c1nn2c(c1C)C(=O)N(c1ccc(-c3ncc4cc(C(F)(F)F)ccc4n3)cc1C)CC2` [compound 056, ethyl 3-methyl-5-(2-methyl-4-(6-(trifluoromethyl)quinazolin-2-yl)phenyl)-4-oxo-4,5,6,7-tetrahydropyrazolo[1,5-a]pyrazine-2-carboxylate] it is less than 200 nM.
Under `Cc1cc(-c2ncc3cc(C(F)(F)F)ccc3n2)ccc1N1CCn2nc(CO)c(C)c2C1=O` [compound 057, 2-(hydroxymethyl)-3-methyl-5-(2-methyl-4-(6-(trifluoromethyl)-quinazolin-2-yl)phenyl)-6,7-dihydropyrazolo[1,5-a]pyrazin-4 (5H)-one] stands less than 200 nM.
The compound `Cc1cc(-c2ncc3cc(C(F)(F)F)ccc3n2)ccc1N1CCn2nc(C(C)O)c(C)c2C1=O` (stereo not shown) [compound 058, 2-(1-hydroxyethyl)-3-methyl-5-(2-methyl-4-(6-(trifluoromethyl)-quinazolin-2-yl)phenyl)-6,7-dihydropyrazolo[1,5-a]pyrazin-4 (5H)-one] had an IC50 of less than 200 nM.
`Cc1cc(-c2ncc3cc(C(F)(F)F)ccc3n2)ccc1N1CCn2nc(C(C)(C)O)c(C)c2C1=O` [compound 059, 2-(2-hydroxypropan-2-yl)-3-methyl-5-(2-methyl-4-(6-(trifluoromethyl)-quinazolin-2-yl)phenyl)-6,7-dihydropyrazolo[1,5-a]pyrazin-4 (5H)-one] came in with an IC50 of less than 200 nM.
Under `Cc1cc(-c2ncc3cc(C(F)(F)F)ccc3n2)ccc1N1CCn2nc(C(=O)O)c(C)c2C1=O` [compound 060, 3-methyl-5-(2-methyl-4-(6-(trifluoromethyl)quinazolin-2-yl)phenyl)-4-oxo-4,5,6,7-tetrahydropyrazolo[1,5-a]pyrazine-2-carboxylic acid] stands 200 to 500 nM; under `Cc1cc(-c2ncc3cc(C(F)(F)F)ccc3n2)ccc1N1CCn2nc(CN3CCOCC3)c(C)c2C1=O` [compound 061, 3-methyl-5-(2-methyl-4-(6-(trifluoromethyl)quinazolin-2-yl)phenyl)-2-(morpholinomethyl)-6,7-dihydropyrazolo[1,5-a]pyrazin-4 (5H)-one], less than 200 nM.
In the case of `Cc1cc(-c2ncc3cc(C(F)(F)F)ccc3n2)ccc1N1CCn2nc(C(=O)N3CCOCC3)c(C)c2C1` [compound 062, (3-methyl-5-(2-methyl-4-(6-(trifluoromethyl)quinazolin-2-yl)phenyl)-4,5,6,7-tetrahydropyrazolo[1,5-a]pyrazin-2-yl)(morpholino)methanone], the IC50 was less than 200 nM.
The figure for `Cc1cc(-c2ncc3cc(C(F)(F)F)ccc3n2)ccc1N1CCn2nc(CN(C)C)c(C)c2C1=O` [compound 063, 2-((dimethylamino)methyl)-3-methyl-5-(2-methyl-4-(6-(trifluoromethyl)-quinazolin-2-yl)phenyl)-6,7-dihydropyrazolo[1,5-a]pyrazin-4 (5H)-one] is less than 200 nM; for `Cc1cc(-c2ncc3cc(C(F)(F)F)ccc3n2)ccc1N1CCn2ncc(Br)c2C1=O` [compound 064, 3-bromo-5-(2-methyl-4-(6-(trifluoromethyl)quinazolin-2-yl)phenyl)-6,7-dihydropyrazolo[1,5-a]pyrazin-4 (5H)-one] it is less than 200 nM.
Under `Cc1cc(-c2ncc3cc(C(F)(F)F)ccc3n2)ccc1N1CCn2ncc(C(=O)O)c2C1=O` [compound 065, 5-(2-methyl-4-(6-(trifluoromethyl)quinazolin-2-yl)phenyl)-4-oxo-4,5,6,7-tetrahydropyrazolo[1,5-a]pyrazine-3-carboxylic acid] stands 500 to 1000 nM; under `Cc1cc(-c2ncc3cc(C(F)(F)F)ccc3n2)ccc1N1CCn2ncc(C(N)=O)c2C1=O` [compound 066, 5-(2-methyl-4-(6-(trifluoromethyl)quinazolin-2-yl)phenyl)-4-oxo-4,5,6,7-tetrahydropyrazolo[1,5-a]pyrazine-3-carboxamide], less than 200 nM; under `Cc1cc(-c2ncc3cc(C(F)(F)F)ccc3n2)ccc1N1CCn2ncc(C#N)c2C1=O` [compound 067, 5-(2-methyl-4-(6-(trifluoromethyl)quinazolin-2-yl)phenyl)-4-oxo-4,5,6,7-tetrahydropyrazolo[1,5-a]pyrazine-3-carbonitrile], less than 200 nM.
The figure for `Cc1cc(-c2ncc3cc(C(F)(F)F)ccc3n2)ccc1N1CCn2ncc(N3CCOCC3)c2C1=O` [compound 068, 5-(2-methyl-4-(6-(trifluoromethyl)quinazolin-2-yl)phenyl)-3-morpholino-6,7-dihydropyrazolo[1,5-a]pyrazin-4 (5H)-one] is less than 200 nM.
As for `Cc1cc(-c2ncc3cc(C(F)(F)F)ccc3n2)ccc1N1CCn2ncc(CN3CCOCC3)c2C1=O` [compound 070, 5-(2-methyl-4-(6-(trifluoromethyl)quinazolin-2-yl)phenyl)-3-(morpholino-methyl)-6,7-dihydropyrazolo[1,5-a]pyrazin-4 (5H)-one], the IC50 was less than 200 nM.
With `Cc1cc(-c2ncc3cc(C(F)(F)F)ccc3n2)ccc1N1CCOc2cnn(CCN3CCOCC3)c2C1=O` [compound 071, 7-(2-methyl-4-(6-(trifluoromethyl)quinazolin-2-yl)phenyl)-1-(2-morpholinoethyl)-6,7-dihydro-1H-pyrazolo[3,4-f][1,4]oxazepin-8 (5H)-one], the IC50 fell in the range of 500 to 1000 nM.

Broadly, the IC50 is the point on the concentration scale where inhibition reaches its midpoint. Low values mean greater potency in that assay, high ones weaker potency in that assay.

The values above are taken from US12258354B2, “AhR modulators” (IDEAYA BIOSCIENCES, INC., priority 2018, dated 2025).
